Assay results: patent US7794967B2, “Method and kit for detection of novel pathogen inhibitors” (priority 2001, dated 2010)
Where two headings read alike, the source gives them in different places.

Legend:
[1] = target: Escherichia coli Klenow polymerase (pol) (Escherichia coli, UniProt P00582, D355A/E357A); assay: Inhibition of Klenow polymerase activity
[2] = target: T1, mammalian poly(A)-specific ribonuclease (PARN) (Bos taurus, UniProt P69341); assay: Inhibition of PARN deadenylation activity; type: biochemical, calf thymus; details: for IC50: appKi = aminoglycoside concentration resulting in 50% inhibition of PARN activity, pH 7.0
T1 sequence (P69341 1-430 limits assumed): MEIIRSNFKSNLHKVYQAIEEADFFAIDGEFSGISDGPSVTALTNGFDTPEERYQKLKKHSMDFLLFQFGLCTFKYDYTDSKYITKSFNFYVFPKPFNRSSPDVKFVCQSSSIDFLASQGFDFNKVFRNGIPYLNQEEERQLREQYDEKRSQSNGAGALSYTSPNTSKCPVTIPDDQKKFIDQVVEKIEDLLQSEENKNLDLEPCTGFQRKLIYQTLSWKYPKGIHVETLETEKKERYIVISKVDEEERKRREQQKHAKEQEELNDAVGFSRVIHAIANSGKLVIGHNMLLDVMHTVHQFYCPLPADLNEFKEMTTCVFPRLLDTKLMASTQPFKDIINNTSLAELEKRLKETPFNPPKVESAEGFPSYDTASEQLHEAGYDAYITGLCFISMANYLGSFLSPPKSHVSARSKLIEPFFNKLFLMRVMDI
Excerpt: Homogeneously purified calf thymus PARN 54 kDa active fragment was used as the source of PARN (Martinez et al. 2000). Recombinant full length human PARN was expressed and purified as described (Martinez et al. 2000). As the substrate we used L3(A30) RNA radioactively labelled in its poly(Å) tail (Åström et al. 1991). Assay conditions and 1-D TLC quantitation procedures were as previously described (Åström et al. 1992). The pH of the deadenylation reactions were 7.0, unless stated otherwise. The consumption of L3(A30) RNA substrate was controlled so that no more than 20% of it was consumed.

RNase P RNA [3] = details: values marked *, from Mikkelsen et al., 1999; read-out: appKi inhibition of RNase P RNA cleavage; cited from earlier work
[4] = tested on: Full-size E. coli RNase P RNA; details: Mikkelsen et al., 1999; cited from earlier work
Taq DNA polymerase = Taq DNA polymerase (Thermus aquaticus, UniProt P19821); assay: In vitro inhibition of Taq DNA polymerase; type: biochemical; details: addition of 0.1-5 mM neomycin B
Sequence of Taq DNA polymerase (P19821 whole entry): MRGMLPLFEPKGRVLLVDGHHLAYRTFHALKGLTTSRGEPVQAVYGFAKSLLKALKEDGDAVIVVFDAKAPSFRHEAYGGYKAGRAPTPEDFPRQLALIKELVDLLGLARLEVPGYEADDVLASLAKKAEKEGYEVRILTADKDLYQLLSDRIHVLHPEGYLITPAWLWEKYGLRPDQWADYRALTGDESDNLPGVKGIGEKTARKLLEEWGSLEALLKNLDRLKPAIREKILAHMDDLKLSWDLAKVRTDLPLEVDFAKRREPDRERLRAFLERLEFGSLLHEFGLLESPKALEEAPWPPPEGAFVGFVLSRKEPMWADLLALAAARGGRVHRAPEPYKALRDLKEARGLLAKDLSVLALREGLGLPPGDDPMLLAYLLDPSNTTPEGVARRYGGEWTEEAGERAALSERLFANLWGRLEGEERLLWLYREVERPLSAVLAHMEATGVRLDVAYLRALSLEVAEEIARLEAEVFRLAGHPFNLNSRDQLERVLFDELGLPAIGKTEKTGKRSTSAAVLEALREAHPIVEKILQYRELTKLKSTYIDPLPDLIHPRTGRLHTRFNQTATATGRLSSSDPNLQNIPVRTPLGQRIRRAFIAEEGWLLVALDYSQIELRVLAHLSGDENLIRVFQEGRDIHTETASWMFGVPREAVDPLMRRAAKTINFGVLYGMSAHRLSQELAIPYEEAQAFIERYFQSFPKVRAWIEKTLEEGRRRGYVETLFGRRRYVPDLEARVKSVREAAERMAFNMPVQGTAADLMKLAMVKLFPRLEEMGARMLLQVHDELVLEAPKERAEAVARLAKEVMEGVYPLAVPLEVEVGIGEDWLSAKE
Excerpt: (§1) The mechanisms behind toxicity and severe side-effects are not understood and several potential causes have been discussed in the literature.

T7 RNA polymerase = T7 RNA polymerase (Escherichia phage T7, UniProt P00573); assay: In vitro inhibition of T7 RNA polymerase; type: biochemical; details: addition of 0.1-5 mM neomycin B
Sequence of T7 RNA polymerase (P00573 whole entry): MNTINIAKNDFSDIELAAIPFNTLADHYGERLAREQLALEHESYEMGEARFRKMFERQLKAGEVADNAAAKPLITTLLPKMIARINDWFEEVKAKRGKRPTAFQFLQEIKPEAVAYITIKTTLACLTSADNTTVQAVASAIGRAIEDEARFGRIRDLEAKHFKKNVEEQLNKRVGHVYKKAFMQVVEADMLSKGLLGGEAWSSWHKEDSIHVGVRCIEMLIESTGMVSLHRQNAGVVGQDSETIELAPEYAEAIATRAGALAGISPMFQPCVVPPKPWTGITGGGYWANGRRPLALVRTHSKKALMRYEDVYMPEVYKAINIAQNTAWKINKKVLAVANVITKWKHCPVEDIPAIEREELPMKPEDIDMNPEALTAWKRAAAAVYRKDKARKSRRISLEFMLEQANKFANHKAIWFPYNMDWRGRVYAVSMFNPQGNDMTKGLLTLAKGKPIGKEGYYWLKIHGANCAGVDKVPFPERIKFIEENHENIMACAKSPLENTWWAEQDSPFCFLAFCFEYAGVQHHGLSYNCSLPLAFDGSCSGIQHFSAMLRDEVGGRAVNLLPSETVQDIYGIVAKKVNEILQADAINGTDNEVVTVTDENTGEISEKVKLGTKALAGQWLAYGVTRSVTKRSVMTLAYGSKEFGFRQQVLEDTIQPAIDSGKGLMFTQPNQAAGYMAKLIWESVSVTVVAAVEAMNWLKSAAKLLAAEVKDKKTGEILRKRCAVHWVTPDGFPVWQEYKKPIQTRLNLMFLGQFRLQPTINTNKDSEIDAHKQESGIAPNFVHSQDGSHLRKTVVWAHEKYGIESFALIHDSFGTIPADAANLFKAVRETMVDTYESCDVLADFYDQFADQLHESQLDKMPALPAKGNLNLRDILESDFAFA
Excerpt: as §1

[5] = target: T2, HIV reverse transcriptase (Human immunodeficiency virus type 1 group M subtype B, UniProt P04585); assay: In vitro inhibition of HIV reverse transcriptase; type: biochemical; details: addition of 0.1-5 mM neomycin B
T2 construct: HIV reverse transcriptase
Excerpt: as §1

[6] = target: mammalian poly(A) polymerase (Homo sapiens, UniProt P51003); assay: In vitro inhibition of mammalian poly(A) polymerase; type: biochemical; details: addition of 0.1-5 mM neomycin B
Sequence of mammalian poly(A) polymerase (P51003 whole entry): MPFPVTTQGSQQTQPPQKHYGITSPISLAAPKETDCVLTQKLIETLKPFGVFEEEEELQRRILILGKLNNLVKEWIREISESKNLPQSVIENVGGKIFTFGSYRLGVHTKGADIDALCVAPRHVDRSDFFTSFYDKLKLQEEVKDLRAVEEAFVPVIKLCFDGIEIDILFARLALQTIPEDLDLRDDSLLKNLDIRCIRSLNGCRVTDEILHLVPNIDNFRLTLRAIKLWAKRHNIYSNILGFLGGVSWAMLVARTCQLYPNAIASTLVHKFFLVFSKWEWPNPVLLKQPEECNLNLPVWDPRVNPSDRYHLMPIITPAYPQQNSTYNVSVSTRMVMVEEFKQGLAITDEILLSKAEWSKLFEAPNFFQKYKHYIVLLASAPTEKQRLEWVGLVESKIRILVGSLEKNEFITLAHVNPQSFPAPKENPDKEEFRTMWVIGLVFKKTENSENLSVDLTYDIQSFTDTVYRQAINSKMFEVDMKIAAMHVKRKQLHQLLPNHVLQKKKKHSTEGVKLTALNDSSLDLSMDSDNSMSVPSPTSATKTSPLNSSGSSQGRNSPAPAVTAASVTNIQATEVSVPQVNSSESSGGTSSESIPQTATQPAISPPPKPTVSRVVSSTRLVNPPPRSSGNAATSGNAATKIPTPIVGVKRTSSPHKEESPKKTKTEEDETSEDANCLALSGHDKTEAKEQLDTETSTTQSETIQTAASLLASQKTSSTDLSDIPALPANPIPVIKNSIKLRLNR
Excerpt: as §1

[7] = target: 31-mer RNA representing the P15-loop of RNase P RNA; assay: Inhibition of Pb2+-induced cleavage of the 31-mer model RNA (P15-loop); type: binding, Escherichia coli; details: aminoglycoside concentration that gives 50% inhibition of Pb2+-induced cleavage; read-out: appKi 31-mer RNA
Klenow pol = assay: Fe(II) mediated hydroxyl radical cleavage of Klenow pol; type: binding, Escherichia coli
Procedure: 2-4 microgram of purified recombinant Klenow pol fragment or mutant thereof, dialysed against buffer F (20 mM HEPES-KOH pH 7.0, 5 mM NaCl) on a Milipore “V” Series Membrane (Millipore) for 30 minutes at 4° C., was incubated for 30 minutes at 37° C. in 50 mM HEPES pH 7.0, 5 mM NaCl, 20 micromolar Fe(NH4)2SO4 and 10 mM DTT in total volume of 10 microliter. The incubations were stopped by the addition of 10 microliter of 2×SDS-loading buffer (100 mM Tris-HCl pH 6.8, 2% (w/v) SDS, 200 mM DTT, 16%(v/v) glycerol, 0.05%(w/v) bromolphenol blue and 50 mM EDTA). The amount of added Mg(II)-ions, Mn(II)-ions or aminoglycoside was as indicated. Reacted polypeptides were fractionated by 10% SDS-polyacrylamide gel electrophoresis and subsequently visualised by silver staining.

[8] = target: Bam HI restriction enzyme (Bacillus amyloliquefaciens, UniProt P23940); assay: In vitro inhibition of Bam HI restriction enzyme; type: biochemical; details: addition of 0.1-5 mM neomycin B
Sequence of Bam HI restriction enzyme (P23940 whole entry): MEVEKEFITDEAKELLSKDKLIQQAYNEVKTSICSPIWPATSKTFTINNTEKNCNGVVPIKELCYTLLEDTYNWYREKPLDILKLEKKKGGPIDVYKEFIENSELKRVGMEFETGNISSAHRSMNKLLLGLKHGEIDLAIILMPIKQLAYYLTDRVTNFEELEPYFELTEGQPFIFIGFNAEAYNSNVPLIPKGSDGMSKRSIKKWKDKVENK
Excerpt: as §1

PARN = target: T3, PARN (Homo sapiens, UniProt O95453); assay: Fe(II) mediated hydroxyl radical cleavage of PARN; type: binding
T3 construct: Recombinant full length human PARN was expressed and purified as described; made in house; host or cells: E. coli
T3 sequence (O95453 1-639): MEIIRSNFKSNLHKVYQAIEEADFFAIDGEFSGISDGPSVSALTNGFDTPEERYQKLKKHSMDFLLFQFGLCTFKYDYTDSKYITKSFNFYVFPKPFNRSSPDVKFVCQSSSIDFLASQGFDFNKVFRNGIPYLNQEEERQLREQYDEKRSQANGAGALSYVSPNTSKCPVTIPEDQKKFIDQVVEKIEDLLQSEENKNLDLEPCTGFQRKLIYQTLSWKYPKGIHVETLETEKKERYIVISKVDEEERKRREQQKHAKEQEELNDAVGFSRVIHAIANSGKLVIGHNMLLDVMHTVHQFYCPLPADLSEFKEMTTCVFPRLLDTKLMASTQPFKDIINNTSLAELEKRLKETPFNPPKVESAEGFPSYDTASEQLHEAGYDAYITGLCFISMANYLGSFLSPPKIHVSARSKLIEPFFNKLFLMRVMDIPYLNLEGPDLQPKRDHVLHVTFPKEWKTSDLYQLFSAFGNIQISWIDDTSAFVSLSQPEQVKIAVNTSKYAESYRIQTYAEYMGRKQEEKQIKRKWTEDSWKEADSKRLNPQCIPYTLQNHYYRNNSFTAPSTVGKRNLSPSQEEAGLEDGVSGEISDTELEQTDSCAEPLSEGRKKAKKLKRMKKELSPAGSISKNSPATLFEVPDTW
Procedure: Recombinant PARN polypeptides expressed in E. coli were purified and radioactively labelled in their N-termini. Fe(II) mediated hydroxyl radical cleavage, of PARN was essentially performed as described above. Reacted samples were subjected to 10% SDS-polyacrylamide gel electrophoresis and the resulting gel was subsequently visualized and quantified using a 400 S PhosphorImager (Molecular Dynamics). In the Mg(II) and Mn(II) ions competition experiments, MgCl2 or MnCl2 was added at indicated concentration in the presence of 20 micromolar Fe(NH4)2SO4.

bacterial RNase H = bacterial RNase H (Escherichia coli, UniProt P0A7Y4); assay: In vitro inhibition of bacterial RNase H; type: biochemical; details: addition of 0.1-5 mM neomycin B
Sequence of bacterial RNase H (P0A7Y4 whole entry): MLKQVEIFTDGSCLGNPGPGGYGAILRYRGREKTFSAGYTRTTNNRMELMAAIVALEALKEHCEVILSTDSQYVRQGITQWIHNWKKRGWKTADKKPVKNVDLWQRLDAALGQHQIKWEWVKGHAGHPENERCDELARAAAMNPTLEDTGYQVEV
Excerpt: as §1

RNase P RNA [9] = assay: Inhibition of RNase P RNA cleavage; type: biochemical, Escherichia coli; details: value without asterisk; read-out: appKi inhibition of RNase P RNA cleavage
Procedure: The structure of some aminoglycosides that inhibit RNase P cleavage are depicted in FIG. 3. Aminoglycosides bind to RNA and displace functionally important divalent metal ions. Thus, aminoglycosides function as metal mimics (Mikkelsen et al., 2001).
RNase P cleavage and Pb2+-induced cleavage was performed and monitored according to standard protocols as described by Kufel and Kirsebom (1998). To determine the appKi value for a given substance RNase P cleavage or Pb2+-induced cleavage conditions were adjusted in such a way that measurements were carried out in the linear portion of the curve of kinetics of the cleavage reaction.

[10] = read-out: appKi (for KL pol), […], pH 7.0

Sequence of Escherichia coli Klenow polymerase (pol) (P00582 324-928 D355A/E357A): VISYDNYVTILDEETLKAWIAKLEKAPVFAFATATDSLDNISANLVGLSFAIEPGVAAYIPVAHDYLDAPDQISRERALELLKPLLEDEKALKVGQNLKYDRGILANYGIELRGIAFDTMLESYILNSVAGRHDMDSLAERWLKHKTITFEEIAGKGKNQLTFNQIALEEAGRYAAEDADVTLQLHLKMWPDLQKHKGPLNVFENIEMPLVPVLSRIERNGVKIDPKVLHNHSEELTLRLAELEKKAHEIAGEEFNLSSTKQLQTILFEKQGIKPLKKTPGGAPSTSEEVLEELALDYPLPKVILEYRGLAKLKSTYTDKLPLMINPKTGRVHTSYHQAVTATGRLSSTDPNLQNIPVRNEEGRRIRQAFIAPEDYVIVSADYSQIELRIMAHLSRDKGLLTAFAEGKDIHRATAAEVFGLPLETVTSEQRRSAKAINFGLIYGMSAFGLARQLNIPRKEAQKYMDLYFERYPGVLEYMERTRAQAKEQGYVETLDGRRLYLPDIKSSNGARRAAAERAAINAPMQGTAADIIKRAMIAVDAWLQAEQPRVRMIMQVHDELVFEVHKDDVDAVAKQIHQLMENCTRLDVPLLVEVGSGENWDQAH

## NC[C@@H]1O[C@H](O[C@H]2[C@@H](O)[C@H](O[C@@H]3[C@@H](O)[C@H](N)C[C@H](N)[C@H]3O[C@H]3O[C@H](CO)[C@@H](O)C[C@H]3N)O[C@@H]2CO)[C@H](N)[C@@H](O)[C@@H]1O[C@H]1O[C@H](CO)[C@@H](O)[C@H](O)[C@@H]1O [Lividomycin]
[1]
  IC50: 11600 ± 2000 µM
[2]
  IC50: 18.7 ± 2.8 µM

## NC[C@@H]1O[C@H](O[C@H]2[C@@H](O)[C@H](O[C@@H]3[C@@H](O)[C@H](N)C[C@H](N)[C@H]3O[C@H]3O[C@H](CN)[C@@H](O)[C@H](O)[C@H]3N)O[C@@H]2CO)[C@H](N)[C@@H](O)[C@@H]1O [Neomycin B]
RNase P RNA [3]
  IC50: 35 ± 12 µM
[1]; Klenow pol
  mode of inhibition (enzyme kinetic analyses): mixed non-competitive inhibitor
  pH dependence of inhibition: pH dependent
[1]; [10]
  IC50: 4800 ± 300 µM
[4]
  inhibition of Pb2+-induced cleavage of E. coli RNase P RNA: inhibited
Taq DNA polymerase
  inhibition of Taq DNA polymerase: can be inhibited
T7 RNA polymerase
  inhibition of T7 RNA polymerase: can be inhibited
[5]
  inhibition of HIV reverse transcriptase: can be inhibited
[6]
  inhibition of mammalian poly(A) polymerase: can be inhibited
[7]
  IC50: 40 µM
Klenow pol
  effect on iron mediated cleavage at the active site: interfered with iron mediated cleavage
[8]
  inhibition of Bam HI restriction enzyme: can be inhibited
PARN
  effect on iron mediated cleavage at the active site: interfered with iron mediated cleavage
[2]; PARN
  mode of inhibition (enzyme kinetic analyses): mixed non-competitive inhibitor
  pH dependence of inhibition: pH dependent
[2]
  IC50: 0.4 ± 0.1 µM
Bacterial RNase H
  inhibition of bacterial RNase H: can be inhibited

## NC[C@@H]1O[C@H](O[C@H]2[C@@H](O)[C@H](O[C@@H]3[C@@H](O)[C@H](N)C[C@H](N)[C@H]3O[C@H]3O[C@H](CO)[C@@H](O)[C@H](O)[C@H]3N)O[C@@H]2CO)[C@H](N)[C@@H](O)[C@@H]1O [Paromomycin]
RNase P RNA [3]
  IC50: 190 ± 12 µM
[1]
  IC50: 10300 ± 800 µM
[7]
  IC50: 340 µM
[2]
  IC50: 17.3 ± 3.5 µM

## CN[C@@H]1[C@@H](O)[C@@H](O[C@@H]2[C@H](O)[C@H](O[C@H]3OC(CN)=CC[C@H]3N)[C@@H](N)C[C@H]2N)OC[C@]1(C)O [5-epi-Sisomicin]
RNase P RNA [9]
  IC50: ~3 µM
[7]
  IC50: 1.2 µM

## CN[C@@H]1[C@@H](O)[C@@H](O[C@@H]2[C@@H](O)[C@H](O[C@H]3OC(CN)=CC[C@H]3N)[C@@H](N)C[C@H]2N)OC[C@]1(C)O [Sisomicin]
[7]
  IC50: 17 µM

## NC[C@H]1O[C@H](O[C@H]2[C@H](O)[C@@H](O[C@H]3O[C@H](CO)[C@@H](O)[C@H](N)[C@H]3O)[C@H](N)C[C@@H]2N)[C@H](N)C[C@@H]1O [Tobramycin]
[1]
  IC50: 9300 ± 700 µM
[2]
  IC50: 7.1 ± 0.2 µM

## NC[C@H]1O[C@H](O[C@H]2[C@H](O)[C@@H](O[C@H]3O[C@H](CO)[C@@H](O)[C@H](N)[C@H]3O)[C@H](N)C[C@@H]2N)[C@H](N)[C@@H](O)[C@@H]1O [Kanamycin B]
[1]; [10]
  IC50: 9200 ± 300 µM
[2]
  IC50: 7.3 ± 0.4 µM

## NC[C@H]1O[C@H](O[C@H]2[C@H](O)[C@@H](O[C@H]3O[C@H](CO)[C@@H](O)[C@H](N)[C@H]3O)[C@H](N)C[C@@H]2N)[C@H](O)[C@@H](O)[C@@H]1O [Kanamycin A]
[1]; [10]
  IC50: 14300 ± 1700 µM
